Assay results as given in PubChem BioAssay AID2060910 (Molecular Pharmacology Branch, DTP, NCI, 2025).

Test system: 242566-281-R-J2-PDC complex spheroid viability
Assay: Anticancer human tumor 242566-281-R-J2-PDC patient-derived pancreatic carcinoma cell line growth inhibition [RAS]
Conditions: for IC50: curve of first compound; for viability, T/C: stronger effect = lower value; active = viability on the fitted dose curve at most 10% of control; inactive = the rest
From the text: RAS pathway inhibitors in Combinations in Complex Spheroids
A high-throughput screen of multi-cell type tumor spheroids was designed to identify active combinations of RAS pathway inhibitors and targeted small molecules. Complex spheroids include a stromal component modeled by human endothelial cells (HUVEC) and fibroblasts modeled by human mesenchymal stem cells (MSCs). The concentration ranges selected for each drug and investigational agent were based upon clinically achievable concentrations if the clinical Cmax of the agent was known.
Compounds. The drugs and investigational agents: abemaciclib (NSC768073), cobimetinib (NSC768068), divarasib (GDC6063, NSC841802), docetaxel (NSC628503), GDC-1971 (RLY-1971, NSC841576), gemcitabine (NSC613327), inavolisib (NSC800729), ipatasertib (NSC767898), KB-0742 (NSC834161), MRTX-1133 (NSC836407), osimertinib (NSC779217), RMC-4630 (NSC839698), RMC-6236 (NSC851965), RMC-6291 (NSC852671), Ro-3306 (NSC812927), sapanisertib (NSC764658), SN-38 (NSC673596), staurosporine (NSC755774), SY5609 (NSC837396), and tovorafenib (DAY101, NSC766906), were obtained from the National Cancer Institute (NCI) Developmental Therapeutics Program Chemical Repository. The FDA-approved anticancer drug set is available from the NCI Developmental Therapeutics Program. […] The stock solutions were prepared in dimethyl sulfoxide (DMSO, Sigma-Aldrich, St. Louis, MO, cat. D2650) at 800-fold the tested concentration and stored at -70 degrees C prior to their use. All drugs and investigational agents were tested over a range starting from a high concentration at or near the clinical Cmax and decreasing in half-log increments. If the clinical Cmax for an agent had not been determined, the highest concentration tested was 10 microM.
Cell Culture. All cells were maintained in an incubator at 37 degrees C and 5% CO2 with 95% humidity. The PDC lines were cultured according to standard operating procedures established by the NCI PDMR. All PDCs were thawed and cultured in Matrigel-coated flasks prepared with a working solution of 1X Ham's F-12 nutrient mix, without supplementation (Invitrogen, Waltham, MA, cat. 11765054), 100 U/mL penicillin-streptomycin (Invitrogen, cat. 15140122), and 2.5% Matrigel (Corning Inc., Corning, NY, cat. 354248) for the first three passages. The 362531-283-R-J2-PDC and 782815-120-R-J1-PDC lines were cultured in 6C/Colon 1B media, which includes advanced DMEM/F-12 (Thermo Fisher Scientific, cat. 12634028), 10 mM HEPES (Thermo Fisher Scientific, cat. 15630080), 1X GlutaMAX supplement (Thermo Fisher Scientific, cat. 35050061), 0.1 mg/mL primocin (InvivoGen, San Diego, CA, cat. ant-pm-2), 10% defined fetal bovine serum, heat inactivated (HyClone Laboratories Inc., Logan, UT, cat. SH30070.03HI), 50% L-WRN conditioned media (ATCC, cat. CRL-3276), 1.25 mM N-Acetyl-L-cysteine (Sigma-Aldrich, cat. A9165), 10 mM nicotinamide (Sigma-Aldrich, cat. N0636), 1X B-27 supplement (Thermo Fisher Scientific, cat. 17504044), 1X N-2 supplement (Thermo Fisher Scientific, cat. 17502048), 50 ng/mL human EGF (Thermo Fisher Scientific, cat. PHG0311), and 10 microM Y-27632 dihydrochloride (Tocris Bioscience, cat. 1254). The K12877-001-R-J1-PDC line was cultured in 6I media, which includes all 6C/Colon 1B media plus 10 ng/mL human FGF-10 (PeproTech, cat. 100-26), 1 ng/mL human FGF-2 (PeproTech, cat. 100-18B), 1 µM prostaglandin E2 (Tocris Bioscience, cat. 2296), […] hydrocortisone (Sigma-Aldrich, cat. H4001), and […] bovine insulin (Sigma-Aldrich, cat. I6634). The K86415-001-R-J1-PDC line was cultured in 6D media, which includes all 6C/Colon 1B media components minus the L-WRN conditioned media. The 485176-168-R4-J1-PDC was cultured in PANC media, which includes all 6C/Colon 1B media plus 100 ng/mL human FGF-10 (PeproTech, cat. 100-26), 500 nM SB-431542 (Selleckchem, cat. S1067), and 10 nM gastrin (Tocris Bioscience, cat. 3006). […]
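Also: spheroids exposed to compound for 7 days before readout.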
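For viability, T/C in this document: 100% = DMSO vehicle control wells.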

O=C(c1ccc(F)c(F)c1Nc1ccc(I)cc1F)N1CC(O)([C@@H]2CCCCN2)C1 + CCn1c(-c2cc(N3CCN(C)CC3)cnc2C(C)OC)c2c3cc(ccc31)-c1csc(n1)CC(NC(=O)C1CC1C)C(=O)N1CCCC(N1)C(=O)OCC(C)(C)C2
inactive: viability, T/C (second compound 0.000949 µM, first compound 0.00316 µM) 89.8% | viability, T/C (second compound 0.000949 µM, first compound 0.01 µM) 71.1% | viability, T/C (second compound 0.000949 µM, first compound 0.0316 µM) 44.3% | viability, T/C (second compound 0.000949 µM, first compound 0.1 µM) 42.3% | viability, T/C (second compound 0.000949 µM, first compound 0.316 µM) 29% | viability, T/C (second compound 0.000949 µM, first compound 1 µM) 16.6% | viability, T/C (second compound 0.003 µM, first compound 0.00316 µM) 72.4% | viability, T/C (second compound 0.003 µM, first compound 0.01 µM) 47.5% | viability, T/C (second compound 0.003 µM, first compound 0.0316 µM) 39.8% | viability, T/C (second compound 0.003 µM, first compound 0.1 µM) 32.4% | viability, T/C (second compound 0.003 µM, first compound 0.316 µM) 23.1% | viability, T/C (second compound 0.003 µM, first compound 1 µM) 15.4% | viability, T/C (second compound 0.00949 µM, first compound 0.00316 µM) 39.9% | viability, T/C (second compound 0.00949 µM, first compound 0.01 µM) 30.8% | viability, T/C (second compound 0.00949 µM, first compound 0.0316 µM) 30.6% | viability, T/C (second compound 0.00949 µM, first compound 0.1 µM) 21.9% | viability, T/C (second compound 0.00949 µM, first compound 0.316 µM) 15.2% | viability, T/C (second compound 0.00949 µM, first compound 1 µM) 16.2% | viability, T/C (second compound 0.03 µM, first compound 0.00316 µM) 24.9% | viability, T/C (second compound 0.03 µM, first compound 0.01 µM) 21.4% | viability, T/C (second compound 0.03 µM, first compound 0.0316 µM) 19.8% | viability, T/C (second compound 0.03 µM, first compound 0.1 µM) 18% | viability, T/C (second compound 0.03 µM, first compound 0.316 µM) 14.5% | viability, T/C (second compound 0.03 µM, first compound 1 µM) 14% | viability, T/C (second compound 0.0949 µM, first compound 0.00316 µM) 21.9% | viability, T/C (second compound 0.0949 µM, first compound 0.01 µM) 17.8% | viability, T/C (second compound 0.0949 µM, first compound 0.0316 µM) 17.6% | viability, T/C (second compound 0.0949 µM, first compound 0.1 µM) 14.1% | viability, T/C (second compound 0.0949 µM, first compound 0.316 µM) 11.2% | viability, T/C (second compound 0.0949 µM, first compound 1 µM) 12.3% | viability, T/C (second compound 0.3 µM, first compound 0.00316 µM) 17.4% | viability, T/C (second compound 0.3 µM, first compound 0.01 µM) 16.4% | viability, T/C (second compound 0.3 µM, first compound 0.0316 µM) 13.3% | viability, T/C (second compound 0.3 µM, first compound 0.1 µM) 14.1% | viability, T/C (second compound 0.3 µM, first compound 0.316 µM) 10.9% | viability, T/C (second compound 0.3 µM, first compound 1 µM) 11.3%
12.2 nM: IC50 (second compound 0.003 µM)
< 3.16 nM: IC50 (second compound 0.00949 µM) | IC50 (second compound 0.03 µM) | IC50 (second compound 0.0949 µM) | IC50 (second compound 0.3 µM)
35.4 nM: IC50 (second compound 0.000949 µM)
